Test results reported in patent US20030095958A1, “Inhibitors of bace” (priority 2001, published 2003).

What follows are compounds tested against BACE (Homo sapiens, UniProt P56817) (assay: Ki Determination for the Inhibition of BACE (FS-1 peptide fluorescence cleavage assay)). Details: apparent Ki; 50 nM BACE, 10 μM FS-1 substrate, 0.1M sodium acetate pH 4.5.
Type: biochemical
Method in brief: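 Apparent Ki values derive from fitting fluorescence progress data (355 nm excitation, 495 nm emission) of FS-1 peptide cleavage to an integrated competitive tight-binding model. Reactions held 50 nM BACE, 10 μM substrate and inhibitor in 2% DMSO, pH 4.5 acetate buffer, with a 15 min enzyme-compound preincubation at room temperature.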

Sequence of BACE (P56817 46-501): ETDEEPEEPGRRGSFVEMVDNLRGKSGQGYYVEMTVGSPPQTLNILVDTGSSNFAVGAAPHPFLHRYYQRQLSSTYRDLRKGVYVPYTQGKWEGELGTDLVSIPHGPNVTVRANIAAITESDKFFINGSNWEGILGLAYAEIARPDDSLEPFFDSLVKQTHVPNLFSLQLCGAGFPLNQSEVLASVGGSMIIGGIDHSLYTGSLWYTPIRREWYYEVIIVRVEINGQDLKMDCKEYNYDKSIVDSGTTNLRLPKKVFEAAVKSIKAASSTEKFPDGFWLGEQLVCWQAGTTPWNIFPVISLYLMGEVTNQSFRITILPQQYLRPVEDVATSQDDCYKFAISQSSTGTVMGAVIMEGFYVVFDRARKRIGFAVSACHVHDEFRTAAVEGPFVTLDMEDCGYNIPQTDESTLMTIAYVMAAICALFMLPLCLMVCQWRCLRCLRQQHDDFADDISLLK

Row | SMILES | Ki [µM]
1 | O=C(C1CNCCC1c1ccc(COc2ccccc2C(F)(F)F)cc1)N1CCc2ccccc2C1 (stereo not shown) [Compound 205, (3,4-Dihydro-1H-isoquinolin-2-yl)-{4-[4-(2-trifluoromethyl-phenoxymethyl)-phenyl]-piperidin-3-yl}-methanone] | > 30
2 | O=C(Nc1ccc2ccccc2c1)C1CNCCN1C(=O)c1cccc(COc2ccccc2C(F)(F)F)c1 (stereo not shown) [Compound 206, 1-[3-(2-Trifluoromethyl-phenoxymethyl)-benzoyl]-piperazine-2-carboxylic acid naphthalen-2-ylamide] | > 30
3 | O=C(O)C1CCCCC1C(=O)NCC1CNCCC1c1ccc(COc2ccccc2C(F)(F)F)cc1 (stereo not shown) [Compound 207, 2-({4-[4-(2-Trifluoromethyl-phenoxymethyl)-phenyl]-piperidin-3-ylmethyl}-carbamoyl)-cyclohexanecarboxylic acid] | > 30
4 | O=C(NCc1ccccc1OC(F)(F)F)C1CNCCC1c1ccc(COc2ccccc2C(F)(F)F)cc1 (stereo not shown) [Compound 208, 4-[4-(2-Trifluoromethyl-phenoxymethyl)-phenyl]-piperidine-3-carboxylic acid 2-trifluoromethoxy-benzylamide] | > 30
5 | O=C(NC1CCCc2ccccc21)C1CNCCC1c1ccc(COc2ccccc2C(F)(F)F)cc1 (stereo not shown) [Compound 209, 4-[4-(2-Trifluoromethyl-phenoxymethyl)-phenyl]-piperidine-3-carboxylic acid (1,2,3,4-tetrahydro-naphthalen-1-yl)-amide] | 3 to 30
6 | C1=C(c2cnc(OCc3ccccc3)nc2OCc2ccccc2)CCNC1 [Compound 210, 2,4-Bis-benzyloxy-5-(1,2,3,6-tetrahydro-pyridin-4-yl)-pyrimidine] | 3 to 30
7 | O=C(NC(c1ccccc1)c1ccccc1)C1CNCCC1c1ccc(COc2ccccc2C(F)(F)F)cc1 (stereo not shown) [Compound 211, 4-[4-(2-Trifluoromethyl-phenoxymethyl)-phenyl]-piperidine-3-carboxylic acid benzhydryl-amide] | 3 to 30
8 | O=C1c2ccccc2C(=O)N1CC1CNCCC1c1ccc(COc2ccccc2C(F)(F)F)cc1 (stereo not shown) [Compound 212, 2-{4-[4-(2-Trifluoromethyl-phenoxymethyl)-phenyl]-piperidin-3-ylmethyl}-isoindole-1,3-dione] | 3 to 30
9 | O=C(O)c1cc2ccccc2cc1C(=O)NCC1CNCCC1c1ccc(COc2ccccc2C(F)(F)F)cc1 (stereo not shown) [Compound 213, 3-({4-[4-(2-Trifluoromethyl-phenoxymethyl)-phenyl]-piperidin-3-ylmethyl}-carbamoyl)-naphthalene-2-carboxylic acid] | 3 to 30
10 | O=c1cc(-c2ccccc2)nc(C2CCNCC2)n1Cc1ccccc1C(F)(F)F [Compound 214, 6-Phenyl-2-piperidin-4-yl-3-(2-trifluoromethyl-benzyl)-3H-pyrimidin-4-one] | 3 to 30
11 | O=C(NCc1cccc2ccccc12)C1CNCCC1c1ccc(COc2ccccc2C(F)(F)F)cc1 (stereo not shown) [Compound 215, 4-[4-(2-Trifluoromethyl-phenoxymethyl)-phenyl]-piperidine-3-carboxylic acid (naphthalen-1-ylmethyl)-amide] | 3 to 30
12 | O=C(Nc1ccc2ccccc2c1)C1CNCCC1c1ccc(COc2ccccc2C(F)(F)F)cc1 (stereo not shown) [Compound 216, 4-[4-(2-Trifluoromethyl-phenoxymethyl)-phenyl]-piperidine-3-carboxylic acid naphthalen-2-ylamide] | 3 to 30
13 | O=C(Nc1cnc(-c2ccc(Cl)c(Cl)c2)nc1N1CCNCC1)c1cccc2ccccc12 [Compound 217, Naphthalene-1-carboxylic acid [2-(3,4-dichloro-phenyl)-4-piperazin-1-yl-pyrimidin-5-yl]-amide] | 3 to 30
14 | O=c1cc(-c2ccccc2)nc(C2CCNCC2)n1Cc1ccc2ccccc2c1 [Compound 218, 3-Naphthalen-2-ylmethyl-6-phenyl-2-piperidin-4-yl-3H-pyrimidin-4-one] | 3 to 30
15 | O=C(NC1CCc2ccccc2C1)C1CNCCC1c1ccc(COc2ccccc2C(F)(F)F)cc1 (stereo not shown) [Compound 219, 4-[4-(2-Trifluoromethyl-phenoxymethyl)-phenyl]-piperidine-3-carboxylic acid (1,2,3,4-tetrahydro-naphthalen-2-yl)-amide] | 3 to 30
16 | O=C(C1CNCCC1c1ccc(COc2ccccc2C(F)(F)F)cc1)N(Cc1ccccc1)c1ccc2ccccc2c1 (stereo not shown) [Compound 220, 4-[4-(2-Trifluoromethyl-phenoxymethyl)-phenyl]-piperidine-3-carboxylic acid benzyl-naphthalen-2-yl-amide] | 3 to 30
17 | O=C(NCC1CNCCC1c1ccc(COc2ccccc2C(F)(F)F)cc1)c1cccc2ccccc12 (stereo not shown) [Compound 221, Naphthalene-1-carboxylic acid {4-[4-(2-trifluoromethyl-phenoxymethyl)-phenyl]-piperidin-3-ylmethyl}-amide] | 3 to 30

Row | SMILES | Ki [µM]
18 | O=C(NCC1CNCCC1c1ccc(COc2ccccc2C(F)(F)F)cc1)c1ccc2ccccc2c1 (stereo not shown) [Compound 222, Naphthalene-2-carboxylic acid {4-[4-(2-trifluoromethyl-phenoxymethyl)-phenyl]-piperidin-3-ylmethyl}-amide] | 3 to 30
19 | O=C(NC(Cc1ccccc1)C(=O)N1CCCC1C(=O)NCC1CNCCC1c1ccc(COc2ccccc2C(F)(F)F)cc1)OCc1ccccc1 (stereo not shown) [Compound 223, {1-Benzyl-2-oxo-2-[2-({4-[4-(2-trifluoromethyl-phenoxymethyl)-phenyl]-piperidin-3-ylmethyl}-carbamoyl)-pyrrolidin-1-yl]-ethyl}-carbamic acid benzyl ester] | 3 to 30
20 | O=C(NCC1CNCCC1c1ccc(COc2ccccc2C(F)(F)F)cc1)Nc1cccc2ccccc12 (stereo not shown) [Compound 224, 1-Naphthalen-1-yl-3-{4-[4-(2-trifluoromethyl-phenoxymethyl)-phenyl]-piperidin-3-ylmethyl}-urea] | 3 to 30
21 | O=C(CNC(=O)C(Cc1ccccc1)NC(=O)OCc1ccccc1)NCC1CNCCC1c1ccc(COc2ccccc2C(F)(F)F)cc1 (stereo not shown) [Compound 225, (2-Phenyl-1-{[({4-[4-(2-trifluoromethyl-phenoxymethyl)-phenyl]-piperidin-3-ylmethyl}-carbamoyl)-methyl]-carbamoyl}-ethyl)-carbamic acid benzyl ester] | 3 to 30
22 | CNCCN(C)c1ccc(-c2ccc(C(F)(F)F)cc2)cc1NCc1ccc2ccccc2c1 [Compound 226, N4-Methyl-N4-(2-methylamino-ethyl)-N3-naphthalen-2-ylmethyl-4′-trifluoromethyl-biphenyl-3,4-diamine] | < 3
23 | O=C(Nc1ccc(-c2ccc(Cl)c(Cl)c2)nc1N1CCNCC1)c1cccc2ccccc12 [Compound 227, Naphthalene-1-carboxylic acid [6-(3,4-dichloro-phenyl)-2-piperazin-1-yl-pyridin-3-yl]-amide] | < 3
24 | O=C(NCC1CNCCC1c1ccc(COc2ccccc2C(F)(F)F)cc1)Oc1ccc2ccccc2c1 (stereo not shown) [Compound 228, {4-[4-(2-Trifluoromethyl-phenoxymethyl)-phenyl]-piperidin-3-ylmethyl}-carbamic acid naphthalen-2-yl ester] | < 3
25 | O=C(NCC1CNCCC1c1ccc(COc2ccccc2C(F)(F)F)cc1)Oc1cccc2ccccc12 (stereo not shown) [Compound 229, {4-[4-(2-Trifluoromethyl-phenoxymethyl)-phenyl]-piperidin-3-ylmethyl}-carbamic acid naphthalen-1-yl ester] | < 3
26 | O=C(NC(Cc1c[nH]c2ccccc12)C(=O)N1CCCC1C(=O)NCC1CNCCC1c1ccc(COc2ccccc2C(F)(F)F)cc1)OCC1c2ccccc2-c2ccccc21 (stereo not shown) [Compound 230, {1-(1H-Indol-3-ylmethyl)-2-oxo-2-[2-{{4-[4-(2-trifluoromethyl-phenoxymethyl)-phenyl]-piperidin-3-ylmethyl}-carbamoyl)-pyrrolidin-1-yl]-ethyl}-carbamic acid 9H-fluoren-9-ylmethyl ester] | < 3
27 | O=S(=O)(NCC1CNCCC1c1ccc(COc2ccccc2C(F)(F)F)cc1)c1ccc2ccccc2c1 (stereo not shown) [Compound 231, Naphthalene-2-sulfonic acid {4-[4-(2-trifluoromethyl-phenoxymethyl)-phenyl]-piperidin-3-ylmethyl}-amide] | < 3
28 | O=C(NCC1CNCCC1c1ccc(COc2ccccc2C(F)(F)F)cc1)Nc1ccc2ccccc2c1 (stereo not shown) [Compound 232, 1-Naphthalen-2-yl-3-{4-[4-(2-trifluoromethyl-phenoxymethyl)-phenyl]-piperidin-3-ylmethyl}-urea] | < 3
29 | FC(F)(F)c1ccccc1OCc1cc(-c2cccc3ccccc23)c(COc2ccccc2C(F)(F)F)cc1C1=CCNCC1 [Compound 301, 4-[4-Naphthalen-1-yl-2,5-bis-(2-trifluoromethyl-phenoxymethyl)-phenyl]-1,2,3,6-tetrahydro-pyridine] | < 3
30 | C1=C(c2ccc(-c3ccccc3)cc2)C(COc2ccc3ccccc3c2)CNC1 (stereo not shown) [Compound 302, 4-Biphenyl-4-yl-3-(naphthalen-2-yloxymethyl)-1,2,3,6-tetrahydro-pyridine] | < 3
31 | FC(F)(F)c1ccccc1OCc1ccc(COc2ccccc2C(F)(F)F)c(C2=CCNCC2)c1 [Compound 303, 4-[2,5-Bis-(2-trifluoromethyl-phenoxymethyl)-phenyl]-1,2,3,6-tetrahydro-pyridine] | < 3
32 | FC(F)(F)c1ccccc1OCc1cccc(COc2ccccc2C(F)(F)F)c1C1=CCNCC1 [Compound 304, 4-[2,6-Bis-(2-trifluoromethyl-phenoxymethyl)-phenyl]-1,2,3,6-tetrahydro-pyridine] | < 3
33 | c1ccc(COc2ccc3c(c2)c2c(n3Cc3ccc4ccccc4c3)CNCC2)cc1 [Compound 305, 6-Benzyloxy-9-naphthalen-2-ylmethyl-2,3,4,9-tetrahydro-1H-b-carboline] | 3 to 30
34 | FC(F)(F)c1ccccc1OCc1cc(-c2ccccc2)c(COc2ccccc2C(F)(F)F)cc1C1=CCNCC1 [Compound 306, 4-[2,5-Bis-(2-trifluoromethyl-phenoxymethyl)-biphenyl-4-yl]-1,2,3,6-tetrahydro-pyridine] | < 3
